Laboratory results reported in US20110053916A1 (Vertex Pharmaceuticals Incorporated, priority 2009, published 2011).
pKi: −log10 of the molar value.

These molecules were tested on Mycobacterium tuberculosis H37Ra (assay: Mycobacterium tuberculosis growth inhibition assay (microtiter dilution, resazurin reduction)). Conditions: 7H9 broth, 9 days + 24 h resazurin, lowest concentration inhibiting resazurin reduction by >70%, several symbols in a cell = repeat determinations.
Type: cell-based
Procedure: Compounds were screened for their ability to inhibit the growth of Mycobacterium tuberculosis H37Ra using a standard microtiter dilution method with reduction of the dye resazurin as an indicator of growth. The growth assay was carried out in standard Mycobacterium liquid growth medium, 7H9Broth (BD Biosciences, Franklin Lakes, N.J.) supplemented with 10% ADC enrichment (BD Biosciences, Franklin Lakes, N.J.). The medium was inoculate with ˜1×10^6 cells/milliliter of Mycobacterium tuberculosis H37Ra grown on a the surface of a growth medium solid medium (7H11 agar [BD Biosciences, Franklin Lakes, N.J.] supplemented with 10% OADC enrichment [BD Biosciences, Franklin Lakes, N.J.]).
Two-fold serial dilutions (either 7 or 11-step series) of test compounds in DMSO were dispensed into 96-well assay plates (sterile, black sided, clear bottom wells) in a volume of 1 microliter. One microliter of DMSO was dispensed into a control well at the end of each series. One-hundred microliters of the bacterial cell suspension in growth medium was dispensed into each test well containing a DSMO solution of compound. The assay plates were covered with a fitted lid and incubated at 37° C. in a humidified chamber for 9 days. On the ninth day 30 microliters of a 0.01% solution of resazurin (Sigma Chemical Co., St. Louis, Mo.) in distilled water was added to each well and the baseline fluorescence of resazurin was determined by measuring well fluorescence at an excitation wavelength of 492 nm and an emission wavelength of 595 nm on a Spectrafluor Plus (Tecan, Durham, N.C.) instrument. The assay plates were returned to the incubation chamber for 24 hours. After 24 hours, the fluorescence of the wells (resulting from the reduction of resazurin dye) was measured at an excitation wavelength of 492 nm and an emission wavelength of 595 nm on the Spectrafluor Plus instrument. The minimum inhibitory concentration (MIC) was called as the lowest concentration of compound that inhibited the reduction of resazurin by >70%, as compared to the DMSO (untreated) control wells. MIC values are represented as the following values: • A* <1.6 μM • A 1.6 μM<12.5 μM • B** 12.5 μM-25.0 μM • B* 25.0 μM-50.0 μM • B 50.0 μM-100.0 μM • C >100.0 μM

Question: How did the MIC values turn out when C[C@@H](O)c1ccc(-c2ncc(Cl)c(Nc3cc(C4CC4)[nH]n3)n2)s1 (stereo in doubt) [Compound 133, 1-[5-[5-chloro-4-[(5-cyclopropyl-1H-pyrazol-3-yl)amino]-pyrimidin-2-yl]-2-thienyl]ethanol] was run?
Answer: Its MIC values is “B++”.

Question: For CC(O)c1ccc(-c2ncc(F)c(Nc3cc(C4CC4)[nH]n3)n2)s1 (stereo in doubt) [Compound 144, (S)-1-(5-(4-(5-cyclopropyl-1H-pyrazol-3-ylamino)-5-fluoropyrimidin-2-yl)thiophen-2yl)ethanol], which MIC values is on record?
Answer: Its MIC values is “B++”.

Question: For CC(O)c1ccc(-c2ncc(F)c(Nc3cc(C4CC4)[nH]n3)n2)s1 (stereo in doubt) [Compound 147, (R)-1-(5-(4-(5-cyclopropyl-1H-pyrazol-3-ylamino)-5-fluoropyrimidin-2-yl)thiophen-2-yl)ethanol], which MIC values is on record?
Answer: The MIC values was “B++”.

Question: How did the MIC values turn out when C#Cc1cnc(-c2ccc([C@@H](O)CC)s2)nc1Nc1cc(C2CC2)[nH]n1 (stereo in doubt) [Compound 199, 1-[5-[4-[(5-cyclopropyl-1H-pyrazol-3-yl)amino]-5-ethynyl-pyrimidin-2-yl]-2-thienyl]propan-1-ol] was run?
Answer: Its MIC values is “B+”.

Question: CC(C)(C)NS(=O)(=O)c1ccc(-c2ncc(CCO)c(Nc3cc(C4CC4)[nH]n3)n2)s1 [Compound 228, 5-[4-[(5-cyclopropyl-1H-pyrazol-3-yl)amino]-5-(2-hydroxyethyl)pyrimidin-2-yl]-N-tert-butyl-thiophene-2-sulfonamide] was tested. Which MIC values did it give?
Answer: The MIC values was “B+”.

Each molecule was assayed against T1, PknB (Mycobacterium tuberculosis, UniProt P9WI81) (assay: biochemical). Conditions: 3 nM PknB, 6 uM GarA, 3 μM ATP, 30 min; competitive tight-binding fit; several symbols in a cell = repeat determinations.
T1 construct: made in house
T1 sequence (P9WI81 whole entry): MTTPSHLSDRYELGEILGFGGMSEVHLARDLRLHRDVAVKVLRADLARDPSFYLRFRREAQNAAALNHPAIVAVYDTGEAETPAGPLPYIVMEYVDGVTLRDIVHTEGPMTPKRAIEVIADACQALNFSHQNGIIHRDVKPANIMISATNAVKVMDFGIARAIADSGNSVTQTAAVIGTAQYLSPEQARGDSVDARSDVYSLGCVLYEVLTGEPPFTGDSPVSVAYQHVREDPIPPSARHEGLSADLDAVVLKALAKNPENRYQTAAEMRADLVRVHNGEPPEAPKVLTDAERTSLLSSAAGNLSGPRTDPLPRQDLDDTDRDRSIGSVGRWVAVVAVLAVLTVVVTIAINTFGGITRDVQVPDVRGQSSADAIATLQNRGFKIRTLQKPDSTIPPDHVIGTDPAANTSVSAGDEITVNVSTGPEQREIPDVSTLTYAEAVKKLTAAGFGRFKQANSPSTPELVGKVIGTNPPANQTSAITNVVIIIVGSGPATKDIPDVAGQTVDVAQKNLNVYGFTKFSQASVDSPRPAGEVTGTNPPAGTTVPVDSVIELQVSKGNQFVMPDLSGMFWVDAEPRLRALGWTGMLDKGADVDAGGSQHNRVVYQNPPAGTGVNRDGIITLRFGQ
Set-up: species or system M. tuberculosis

Question: For C[C@@H](O)c1ccc(-c2ncc(Cl)c(Nc3cc(C4CC4)[nH]n3)n2)s1 (stereo in doubt) [Compound 133, 1-[5-[5-chloro-4-[(5-cyclopropyl-1H-pyrazol-3-yl)amino]-pyrimidin-2-yl]-2-thienyl]ethanol], which “Ki Values” is on record?
Answer: The value was “A**, A*”.

Question: Which “Ki Values” does the source give for C#Cc1cnc(-c2ccc([C@@H](O)CC)s2)nc1Nc1cc(C2CC2)[nH]n1 (stereo in doubt) [Compound 199, 1-[5-[4-[(5-cyclopropyl-1H-pyrazol-3-yl)amino]-5-ethynyl-pyrimidin-2-yl]-2-thienyl]propan-1-ol] here?
Answer: Its value is “A**, A*”.

Question: With N#Cc1cc(Nc2cc(C3CC3)n[nH]2)nc(-c2ccc(S(N)(=O)=O)s2)n1 [Compound 295, 5-[4-cyano-6-[(5-cyclopropyl-2H-pyrazol-3-yl)amino]-pyrimidin-2-yl]thiophene-2-sulfonamide] as the molecule, how does the “Ki Values” read?
Answer: The value was “A**, B**”.

Same assay, conditions: 3 nM PknB, 6 uM GarA, 3 μM ATP, 30 min; competitive tight-binding fit; several symbols in a cell = repeat determinations; read-out: Ki Values

Question: How did the pKi turn out when CC(O)c1ccc(-c2ncc(F)c(Nc3cc(C4CC4)[nH]n3)n2)s1 (stereo in doubt) [Compound 144, (S)-1-(5-(4-(5-cyclopropyl-1H-pyrazol-3-ylamino)-5-fluoropyrimidin-2-yl)thiophen-2yl)ethanol] was run?
Answer: The pKi was 7.30 to 8.00.

Question: CC(O)c1ccc(-c2ncc(F)c(Nc3cc(C4CC4)[nH]n3)n2)s1 (stereo in doubt) [Compound 147, (R)-1-(5-(4-(5-cyclopropyl-1H-pyrazol-3-ylamino)-5-fluoropyrimidin-2-yl)thiophen-2-yl)ethanol] was tested. Which pKi did it give?
Answer: The pKi was 7.30 to 8.00.

Question: With CC(C)(C)NS(=O)(=O)c1ccc(-c2nc(CO)cc(Nc3cc(C4CC4)[nH]n3)n2)s1 [Compound 286, 5-[4-[(5-cyclopropyl-1H-pyrazol-3-yl)amino]-6-(hydroxymethyl)pyrimidin-2-yl]-N-tert-butyl-thiophene-2-sulfonamide] as the molecule, how does the pKi read?
Answer: The pKi was 7.30 to 8.00.

Question: How did the pKi turn out when CC(=O)c1ccc(-c2ncc(Cl)c(Nc3cc(C4CC4)[nH]n3)n2)o1 [Compound 288, 1-[5-[5-chloro-4-[(5-cyclopropyl-1H-pyrazol-3-yl)amino]-pyrimidin-2-yl]-2-furyl]ethanone] was run?
Answer: Its pKi is 6.30 to 7.00.

Question: With CC(O)c1ccc(-c2ncc(Cl)c(Nc3cc(C4CC4)[nH]n3)n2)o1 (stereo not drawn) [Compound 289, 1-[5-[5-chloro-4-[(5-cyclopropyl-1H-pyrazol-3-yl)amino]-pyrimidin-2-yl]-2-furyl]ethanol] as the molecule, how does the pKi read?
Answer: Its pKi is 6.30 to 7.00.

Question: CSc1cc(Nc2cc(C3CC3)n[nH]2)nc(-c2ccc(S(N)(=O)=O)s2)n1 [Compound 291, 5-[4-[(5-cyclopropyl-2H-pyrazol-3-yl)amino]-6-methylsulfanyl-pyrimidin-2-yl]thiophene-2-sulfonamide] was tested. Which pKi did it give?
Answer: The pKi was 6.30 to 7.00.

Question: With NS(=O)(=O)c1ccc(-c2nc(Nc3n[nH]c(C4CC4)c3Cl)cc(C(=O)O)n2)s1 [Compound 292, 6-[(4-chloro-5-cyclopropyl-1H-pyrazol-3-yl)amino]-2-(5-sulfamoyl-2-thienyl)-pyrimidine-4-carboxylic acid] as the molecule, how does the pKi read?
Answer: The pKi was less than 5.40.

Question: How did the pKi turn out when Cc1nc(-c2ncc(Cl)c(Nc3cc(C4CC4)[nH]n3)n2)sc1C(C)O (stereo not drawn) [Compound 296, 1-(2-(5-chloro-4-(5-cyclopropyl-1H-pyrazol-3-ylamino)pyrimidin-2-yl)-4-methylthiazol-5-yl)ethanol] was run?
Answer: The pKi was 6.30 to 7.00.

Question: CC(=O)c1sc(-c2ncc(Cl)c(Nc3cc(C4CC4)[nH]n3)n2)nc1C [Compound 297, 1-(2-(5-Chloro-4-(5-cyclopropyl-1H-pyrazol-3-ylamino)pyrimidin-2-yl)-4-methylthiazol-5-yl)ethanone] was tested. Which pKi did it give?
Answer: The pKi was 7.30 to 8.00.

Question: With NS(=O)(=O)c1ccc(-c2nc(Nc3cc(C4CC4)n[nH]3)cc(C3CC3)n2)s1 [Compound 298, 5-(4-cyclopropyl-6-(3-cyclopropyl-1H-pyrazol-5-ylamino)pyrimidin-2-yl)thiophene-2-sulfonamide] as the molecule, how does the pKi read?
Answer: Its pKi is 7.00 to 7.30.

Question: NS(=O)(=O)c1ccc(-c2ncc(Cl)c(Nc3cc(C4CC4)[nH]n3)n2)cn1 [Compound 299, 5-[5-chloro-4-[(5-cyclopropyl-1H-pyrazol-3-yl)amino]-pyrimidin-2-yl]pyridine-2-sulfonamide] was tested. Which pKi did it give?
Answer: Its pKi is 7.30 to 8.00.

Question: CC(C)(C)NS(=O)(=O)c1ccc(-c2ncc(Cl)c(Nc3cc(C4CC4)[nH]n3)n2)cn1 [Compound 302, 5-[5-chloro-4-[(5-cyclopropyl-1H-pyrazol-3-yl)amino]-pyrimidin-2-yl]-N-tert-butyl-pyridine-2-sulfonamide] was tested. Which pKi did it give?
Answer: Its pKi is 7.30 to 8.00.

Question: With NS(=O)(=O)c1ccc(-c2nc(Nc3cc(C4CC4)n[nH]3)c(Cl)c(C3CC3)n2)s1 [Compound 304, 5-(5-chloro-4-cyclopropyl-6-(3-cyclopropyl-1H-pyrazol-5-ylamino)pyrimidin-2-yl)thiophene-2-sulfonamide] as the molecule, how does the pKi read?
Answer: The pKi was 8.00 to 9.00.

Question: With CC(=O)OCCc1cnc(-c2ccc(S(=O)(=O)NC(C)(C)C)s2)nc1Nc1cc(C2CC2)[nH]n1 [Compound 309, 2-[4-[(5-cyclopropyl-1H-pyrazol-3-yl)amino]-2-[5-(tert-butylsulfamoyl)-2-thienyl]-pyrimidin-5-yl]ethyl acetate] as the molecule, how does the pKi read?
Answer: The pKi was 6.30 to 7.00.

Question: How did the pKi turn out when OC1CCCc2nc(-c3ncc(Cl)c(Nc4cc(C5CC5)[nH]n4)n3)sc21 (stereo not drawn) [Compound 310, 2-[5-chloro-4-[(5-cyclopropyl-1H-pyrazol-3-yl)amino]-pyrimidin-2-yl]-4,5,6,7-tetrahydrobenzothiazol-7-ol] was run?
Answer: The pKi was 6.30 to 7.00.

Question: NS(=O)(=O)c1ccc(-c2nc(Nc3cc(C4CC4)n[nH]3)ncc2Cl)s1 [Compound 314, 5-[5-chloro-2-[(5-cyclopropyl-2H-pyrazol-3-yl)amino]-pyrimidin-4-yl]thiophene-2-sulfonamide] was tested. Which pKi did it give?
Answer: The pKi was 8.00 to 9.00.

Question: NS(=O)(=O)c1ccc(-c2ccnc(Nc3cc(C4CC4)n[nH]3)n2)s1 [Compound 315, 5-[2-[(5-cyclopropyl-2H-pyrazol-3-yl)amino]pyrimidin-4-yl]thiophene-2-sulfonamide] was tested. Which pKi did it give?
Answer: Its pKi is 8.00 to 9.00.

Question: How did the pKi turn out when NS(=O)(=O)c1cc(-c2nccc(Nc3cc(C4CC4)[nH]n3)n2)ccc1O [Compound 318, 5-[4-[(5-cyclopropyl-1H-pyrazol-3-yl)amino]pyrimidin-2-yl]-2-hydroxy-benzenesulfonamide] was run?
Answer: Its pKi is 7.30 to 8.00.

Question: With NS(=O)(=O)c1ccc(-c2ncc(CCCO)c(Nc3cc(C4CC4)[nH]n3)n2)s1 [Compound 319, 5-[4-[(5-cyclopropyl-1H-pyrazol-3-yl)amino]-5-(3-hydroxypropyl)pyrimidin-2-yl]thiophene-2-sulfonamide] as the molecule, how does the pKi read?
Answer: The pKi was 8.00 to 9.00.

Question: With CC1CC1c1cc(Nc2nc(-c3ccc(S(=O)(=O)NC(C)(C)C)s3)ncc2Cl)n[nH]1 (stereo not drawn) [Compound 321, 5-[5-chloro-4-[[5-(2-methylcyclopropyl)-1H-pyrazol-3-yl]amino]-pyrimidin-2-yl]-N-tert-butyl-thiophene-2-sulfonamide] as the molecule, how does the pKi read?
Answer: Its pKi is 6.30 to 7.00.

Question: CC(C)(C)OC(=O)Nc1ccc(-c2ncc(Cl)c(Nc3cc(C4CC4)[nH]n3)n2)s1 [Compound 324, tert-butyl [[5-[5-chloro-4-[(5-cyclopropyl-1H-pyrazol-3-yl)amino]-pyrimidin-2-yl]-2-thienyl]amino]formate] was tested. Which pKi did it give?
Answer: Its pKi is 6.30 to 7.00.

Question: How did the pKi turn out when CN1CCN(c2cc(Nc3cc(C4CC4)[nH]n3)nc(-c3ccc(S(N)(=O)=O)s3)n2)CC1 [Compound 325, 5-[4-[(5-cyclopropyl-1H-pyrazol-3-yl)amino]-6-(4-methylpiperazin-1-yl)-pyrimidin-2-yl]thiophene-2-sulfonamide] was run?
Answer: The pKi was 6.30 to 7.00.

Question: With Cc1cnc(-c2ccc(C(O)CO)s2)nc1Nc1cc(C2CC2)[nH]n1 (stereo not drawn) [Compound 326, 1-[5-[4-[(5-cyclopropyl-1H-pyrazol-3-yl)amino]-5-methyl-pyrimidin-2-yl]-2-thienyl]ethane-1,2-diol] as the molecule, how does the pKi read?
Answer: Its pKi is 7.30 to 8.00.

Question: With OCC(O)c1ccc(-c2ncc(Cl)c(Nc3cc(C4CC4)[nH]n3)n2)s1 (stereo not drawn) [Compound 327, 1-[5-[5-chloro-4-[(5-cyclopropyl-1H-pyrazol-3-yl)amino]-pyrimidin-2-yl]-2-thienyl]ethane-1,2-diol] as the molecule, how does the pKi read?
Answer: Its pKi is 7.30 to 8.00.

Question: NC(=O)c1ccc(-c2ncc(Cl)c(Nc3cc(C4CC4)[nH]n3)n2)s1 [compound 131, 5-(5-Chloro-4-(5-cyclopropyl-1H-pyrazol-3-ylamino)pyrimidin-2-yl)thiophene-2-carboxamide] was tested. Which pKi did it give?
Answer: The pKi was 8.00 to 9.00.
